“And” between values parts separate entries of the source, which are not always exact repeats. Equal entries are not always repeated.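 96-well plates; 48 h exposure; 5 concentrations. Endpoints by linear interpolation between flanking doses. Not reached: highest tested concentration assigned. GI50 marks 50% less growth. Definition used: TGI = concentration required for complete inhibition of growth.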 Where a SMILES comes first, the peptide text is derived from it. [ ]: non-standard residue; d: D form. The star is where a group is joined. Phe(4-NO2) = N[CH](Cc1ccc([N+](=O)[O-])cc1)C(=O)O; Boc = CC(C)(C)OC(=O)*
Columns and labels:
Experiment in all cases: NCI-60 cell line screen, 48 h
BT-549 breast = test system: BT-549 breast
EKVX NSCLC = test system: EKVX NSCLC
SW-620 colon = test system: SW-620 colon
U251 CNS = test system: U251 CNS
K-562 leukemia = test system: K-562 leukemia
NCI-H522 lung = test system: NCI-H522 lung
HCT-116 colon = test system: HCT-116 colon
RPMI-8226 leukemia = test system: RPMI-8226 leukemia
PC-3 prostate = test system: PC-3 prostate
SK-OV-3 ovarian = test system: SK-OV-3 ovarian

SMILES | TGI (BT-549 breast) [µM] | TGI (EKVX NSCLC) [µM] | TGI (SW-620 colon) [µM] | TGI (U251 CNS) [µM] | GI50 (K-562 leukemia) [µM] | TGI (K-562 leukemia) [µM] | GI50 (NCI-H522 lung) [µM] | TGI (NCI-H522 lung) | GI50 (HCT-116 colon) [µM] | TGI (HCT-116 colon) [µM] | TGI (RPMI-8226 leukemia) | TGI (PC-3 prostate) [µM] | GI50 (SK-OV-3 ovarian) [µM] | TGI (SK-OV-3 ovarian) [µM] | GI50 (EKVX NSCLC) [µM] | GI50 (SW-620 colon) [nM] | GI50 (U251 CNS) [nM] | GI50 (RPMI-8226 leukemia) [nM] | GI50 (PC-3 prostate) [nM] | GI50 (BT-549 breast) [µM]
O=C1C(N2CCN(CCOCCO)CC2)=C(Cl)C(=O)c2ncccc21 | 8.33 | 35.1 | 50.7 | 35.9 | 13.3 | 34.4 | 17.7 | 4.22 µM and 32.6 µM | 18.5 | 33.5 | 47.8 µM | 38.9 | > 100 | > 100 | – | – | – | – | – | –
Cc1c(OCc2cccc3ccccc23)ccc2c(=O)cc(SCCN3CCOCC3)oc12 | > 100 | > 100 | > 100 | > 100 | – | > 100 | – | > 100 µM | – | > 100 | – | > 100 | – | – | – | – | – | – | – | –
O=c1[nH]cc(N=Cc2cc(Cl)ccc2O)c(=O)[nH]1 | 70 | > 100 | – | 88.2 | – | > 100 | – | > 100 µM | – | > 100 | 53.3 µM | > 100 | – | 59.4 | – | – | – | – | – | –
O=c1c2ccccc2nc(N/N=C/c2ccc([N+](=O)[O-])cc2)n1-c1ccccc1 | 46 | 79.6 | – | 48.4 | – | > 100 | – | > 100 µM | – | > 100 | > 100 µM | > 100 | – | 64.8 | – | – | – | – | – | –
O=C1C=C(N2CCN(c3ncccn3)CC2)C(=O)c2c(O)ccc(O)c21 | > 100 | > 100 | > 100 | > 100 | – | > 100 | – | > 100 µM | – | > 100 | – | > 100 | – | > 100 | – | – | – | – | – | –
Cc1cc(C)c2c(c1)C/C(=C\c1cccc(C)c1C(=O)O)C2=O | > 100 | > 100 | > 100 | – | – | > 100 | – | > 100 µM | – | > 100 | > 100 µM | > 100 | – | – | – | – | – | – | – | –
O=C(Nc1ccc(-n2cc(-c3ccncc3)c(-c3ccc(O)c(Cl)c3)n2)cc1)c1ccc(Cl)c(C(F)(F)F)c1 | – | > 50 | > 50 | 6.76 | 1.37 | > 50 | 1 | 4.88 µM | 1.75 | 7.04 | 2.52 µM | > 50 | – | – | 4.83 | 2380 | 867 | 650 | 1370 | –
COC(=O)c1c2c(cc3c1CC1(Cc4cc5c(c(C)c4C1)CCC5)C3)CCC2 (centres undefined) | – | > 100 | > 100 | > 100 | – | > 100 | – | > 100 µM | – | > 100 | > 100 µM | > 100 | – | > 100 | – | – | – | – | – | –
CCOC(=O)CCC(NC(=O)C(Cc1ccc([N+](=O)[O-])cc1)NC(=O)OC(C)(C)C)C(=O)NC(CCC(=O)OCC)C(=O)OCC (centres undefined) (Boc-[Phe(4-NO2)]-Glu(OEt)-Glu(OEt)-OEt; configuration not given here) | 45.1 | – | 40.2 | 44.6 | – | – | – | – | – | 38.5 | 43.3 µM | 39.5 | – | – | – | – | – | – | – | –
O=C1CCCCC/C1=C\c1cccc(F)c1 | > 100 | > 100 | > 100 | > 100 | – | > 100 | – | – | – | > 100 | 97.5 µM | > 100 | – | > 100 | – | – | – | – | – | –
Cc1ccc(-n2nncc2[Si](C)(C)C)s1 | > 100 | – | > 100 | > 100 | – | > 100 | – | > 100 µM | – | > 100 | > 100 µM | > 100 | – | > 100 | – | – | – | – | – | –
Cc1cc2c(=O)c3ccc(Cl)cc3[nH]c2c(C(N)=O)c1C | – | > 100 | > 100 | > 100 | – | > 100 | – | > 100 µM | – | > 100 | > 100 µM | – | – | > 100 | – | – | – | – | – | –
O=[N+]([O-])c1ccc(N2N=C(c3c(O)ccc4ccccc34)CC2c2ccc(Cl)cc2)c([N+](=O)[O-])c1 (centres undefined) | > 100 | – | > 100 | > 100 | – | 45.6 | – | > 100 µM | – | 37.2 | > 100 µM | 66.4 | – | > 100 | – | – | – | – | – | –
CCOc1ccc2nc3nc(=O)[nH]c(C)c3c(NC(C)(CO)CO)c2c1 | > 100 | > 100 | > 100 | > 100 | – | > 100 | – | > 100 µM | – | > 100 | – | > 100 | – | > 100 | – | – | – | – | – | –
N/N=C(/N)SCCCCCCCCCCS/C(N)=N/N | 68.7 | > 100 | 36.6 | 51.4 | – | 32.3 | – | 65.6 µM | – | > 100 | 70.8 µM | > 100 | – | – | – | – | – | – | – | –
CC(=O)OCC1OC(SC2=NC(=O)CS2)C(OC(C)=O)C(OC(C)=O)C1OC(C)=O (centres undefined) | > 100 | – | > 100 | – | – | > 100 | – | > 100 µM | – | – | 90 µM and > 100 µM | > 100 | – | > 100 | – | – | – | – | – | –
O=C(O)Cn1c2c(c3c1-c1ccccc1C3=O)C(=O)CCC2 | > 100 | > 100 | > 100 | > 100 | > 100 | > 100 | > 100 | > 100 µM | > 100 | > 100 | – | – | > 100 | > 100 | > 100 | > 100000 | > 100000 | – | – | > 100
Oc1c(Cl)cc2cc1-c1cc(cc(Cl)c1O)CCc1c(cc(Cl)c(O)c1Cl)-c1cc(Cl)c(c(Cl)c1O)/C=C\2 | > 50 | – | 31.5 | 45.6 | – | > 50 | – | – | – | 15.3 | > 50 µM | 20.3 | – | 18 | – | – | – | – | – | –
CC(=O)/C=C/c1ccccc1 | – | > 100 | > 100 | > 100 | – | > 100 | – | 32.6 µM | – | > 100 | > 100 µM | > 100 | – | > 100 | – | – | – | – | – | –
COC(=O)/C=C\n1nc(Br)c(=O)[nH]c1=O | > 100 | > 100 | > 100 | > 100 | – | > 100 | – | > 100 µM | – | – | > 100 µM | > 100 | – | – | – | – | – | – | – | –
O=C1c2ccncc2C(=O)c2c(O)ccc(O)c21 | – | 32.1 | 11.5 | 30.3 | – | 55.5 | – | – | – | 10.3 | 30.4 µM | – | – | – | – | – | – | – | – | –
O=C1CC(c2ccsc2)n2cccc21 (centres undefined) | – | > 100 | > 100 | > 100 | – | > 100 | – | > 100 µM | – | > 100 | > 100 µM | > 100 | – | > 100 | – | – | – | – | – | –

— PubChem BioAssay (NCI)
